PubChem BioAssay (NCI)
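Growth conditions: 96-well plates. Treatment: test compound, 48 hours, 5 concentrations. Analysis: linear interpolation between bracketing concentrations; unreached endpoints set to highest concentration. Abbreviation: GI50, concentration required for 50% inhibition of growth. TGI marks complete inhibition of growth.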

Experiments:
Assay in all cases: NCI anticancer screen, dose series, 48 h
SK-MEL-5 melanoma = system: SK-MEL-5 melanoma
COLO 205 colon = system: COLO 205 colon
786-0 renal = system: 786-0 renal
RPMI-8226 leukemia = system: RPMI-8226 leukemia
SNB-75 CNS = system: SNB-75 CNS
MCF7 breast = system: MCF7 breast
SK-OV-3 ovarian = system: SK-OV-3 ovarian
PC-3 prostate = system: PC-3 prostate
HT29 colon = system: HT29 colon
A498 renal = system: A498 renal
U251 CNS = system: U251 CNS
EKVX NSCLC = system: EKVX NSCLC
MDA-MB-231 breast = system: MDA-MB-231 breast
HCC-2998 colon = system: HCC-2998 colon
MALME-3M melanoma = system: MALME-3M melanoma
KM12 colon = system: KM12 colon
HS 578T breast = system: HS 578T breast
OVCAR-5 ovarian = system: OVCAR-5 ovarian
NCI-H226 lung = system: NCI-H226 lung
MOLT-4 leukemia = system: MOLT-4 leukemia
NCI-H23 lung = system: NCI-H23 lung
NCI/ADR-RES ovarian = system: NCI/ADR-RES ovarian
NCI-H460 lung = system: NCI-H460 lung
A549 NSCLC = system: A549 NSCLC
BT-549 breast = system: BT-549 breast
LOX IMVI melanoma = system: LOX IMVI melanoma
SNB-19 CNS = system: SNB-19 CNS
OVCAR-8 ovarian = system: OVCAR-8 ovarian
NCI-H522 lung = system: NCI-H522 lung
OVCAR-4 ovarian = system: OVCAR-4 ovarian
HOP-92 NSCLC = system: HOP-92 NSCLC
HCT-15 colon = system: HCT-15 colon
HOP-62 NSCLC = system: HOP-62 NSCLC
SF-539 CNS = system: SF-539 CNS
HL-60(TB) leukemia = system: HL-60(TB) leukemia
OVCAR-3 ovarian = system: OVCAR-3 ovarian
SR leukemia = system: SR leukemia
HCT-116 colon = system: HCT-116 colon
CAKI-1 renal = system: CAKI-1 renal
UACC-62 melanoma = system: UACC-62 melanoma
RXF 393 renal = system: RXF 393 renal
UO-31 renal = system: UO-31 renal
SF-268 CNS = system: SF-268 CNS
IGROV1 ovarian = system: IGROV1 ovarian
T-47D breast = system: T-47D breast
TK-10 renal = system: TK-10 renal
MDA-MB-435 = system: MDA-MB-435
DU-145 prostate = system: DU-145 prostate
K-562 leukemia = system: K-562 leukemia
CCRF-CEM leukemia = system: CCRF-CEM leukemia
SK-MEL-2 melanoma = system: SK-MEL-2 melanoma
UACC-257 melanoma = system: UACC-257 melanoma
SW-620 colon = system: SW-620 colon
SK-MEL-28 melanoma = system: SK-MEL-28 melanoma
SN12C renal = system: SN12C renal
M14 melanoma = system: M14 melanoma
SF-295 CNS = system: SF-295 CNS

In the case of `COc1ccc(-c2cn(-c3cccc(C(=O)/C=C/c4cc(OC)c(OC)c(OC)c4)c3)c(=O)[nH]2)cc1`, the GI50 (SK-MEL-5 melanoma) is reported as 2.03 µM, the TGI (SK-MEL-5 melanoma) is reported as 5.25 µM and the GI50 (COLO 205 colon) is reported as 1.84 µM. It also gave a TGI (COLO 205 colon) of 3.89 µM, a GI50 (786-0 renal) of 1.61 µM and a TGI (786-0 renal) of 3.25 µM. It also gave a GI50 (RPMI-8226 leukemia) of 0.924 µM, a TGI (RPMI-8226 leukemia) greater than 100 µM and a GI50 (SNB-75 CNS) of 4.59 µM. It also gave a TGI (SNB-75 CNS) of 17 µM, a GI50 (MCF7 breast) of 0.444 µM and a TGI (MCF7 breast) of 3.45 µM. The GI50 (SK-OV-3 ovarian) was 4.6 µM, the TGI (SK-OV-3 ovarian) was 61.2 µM and the GI50 (PC-3 prostate) was 6.22 µM. The TGI (PC-3 prostate) was 39 µM, the GI50 (HT29 colon) was 1.28 µM and the TGI (HT29 colon) was 2.58 µM. The GI50 (A498 renal) was 4.21 µM, the TGI (A498 renal) was 14.5 µM and the GI50 (U251 CNS) was 0.888 µM. The TGI (U251 CNS) was 3.25 µM, the GI50 (EKVX NSCLC) was 4.2 µM and the TGI (EKVX NSCLC) was greater than 100 µM. The GI50 (MDA-MB-231 breast) was 5.48 µM, the TGI (MDA-MB-231 breast) was 25.4 µM and the GI50 (HCC-2998 colon) was 1.64 µM. For the same molecule, the TGI (HCC-2998 colon) was 3 µM, the GI50 (MALME-3M melanoma) was 1.79 µM and the TGI (MALME-3M melanoma) was 6.24 µM. It also gave a GI50 (KM12 colon) of 1.42 µM, a TGI (KM12 colon) of 2.75 µM and a GI50 (HS 578T breast) of 3.39 µM. The TGI (HS 578T breast) was 25.6 µM, the GI50 (OVCAR-5 ovarian) was 2.64 µM and the TGI (OVCAR-5 ovarian) was 5.51 µM. The GI50 (NCI-H226 lung) was 35.2 µM, the TGI (NCI-H226 lung) was greater than 100 µM and the GI50 (MOLT-4 leukemia) was 3.48 µM. For the same molecule, the TGI (MOLT-4 leukemia) was greater than 100 µM, the GI50 (NCI-H23 lung) was 1.63 µM and the TGI (NCI-H23 lung) was 4.35 µM. The GI50 (NCI/ADR-RES ovarian) was 1.7 µM, the TGI (NCI/ADR-RES ovarian) was 4.67 µM and the GI50 (NCI-H460 lung) was 1.56 µM. It also gave a TGI (NCI-H460 lung) of 3.14 µM, a GI50 (A549 NSCLC) of 11.8 µM and a TGI (A549 NSCLC) greater than 100 µM. The GI50 (BT-549 breast) was 2.59 µM, the TGI (BT-549 breast) was 8.92 µM and the GI50 (LOX IMVI melanoma) was 0.725 µM. For the same molecule, the TGI (LOX IMVI melanoma) was 2.3 µM, the GI50 (SNB-19 CNS) was 4.38 µM and the TGI (SNB-19 CNS) was 15.8 µM. For the same molecule, the GI50 (OVCAR-8 ovarian) was 2.53 µM, the TGI (OVCAR-8 ovarian) was 15.3 µM and the GI50 (NCI-H522 lung) was 1.85 µM. It also gave a TGI (NCI-H522 lung) of 4.39 µM, a GI50 (OVCAR-4 ovarian) of 3.57 µM and a TGI (OVCAR-4 ovarian) greater than 100 µM. It also gave a GI50 (HOP-92 NSCLC) of 14.9 µM, a TGI (HOP-92 NSCLC) of 67.2 µM and a GI50 (HCT-15 colon) of 1.38 µM. It also gave a TGI (HCT-15 colon) of 4.7 µM, a GI50 (HOP-62 NSCLC) of 5.91 µM and a TGI (HOP-62 NSCLC) of 18.1 µM. For the same molecule, the GI50 (SF-539 CNS) was 2 µM, the TGI (SF-539 CNS) was 4.09 µM and the GI50 (HL-60(TB) leukemia) was 4.28 µM. It also gave a TGI (HL-60(TB) leukemia) greater than 100 µM, a GI50 (OVCAR-3 ovarian) of 1.78 µM and a TGI (OVCAR-3 ovarian) of 4.23 µM. It also gave a GI50 (SR leukemia) of 0.85 µM, a TGI (SR leukemia) greater than 100 µM and a GI50 (HCT-116 colon) of 0.371 µM. It also gave a TGI (HCT-116 colon) of 1.38 µM, a GI50 (CAKI-1 renal) of 3.05 µM and a TGI (CAKI-1 renal) of 13.2 µM. For the same molecule, the GI50 (UACC-62 melanoma) was 2.06 µM, the TGI (UACC-62 melanoma) was 4.85 µM and the GI50 (RXF 393 renal) was 1.92 µM. For the same molecule, the TGI (RXF 393 renal) was 3.75 µM, the GI50 (UO-31 renal) was 1.91 µM and the TGI (UO-31 renal) was 6.73 µM. The GI50 (SF-268 CNS) was 3.21 µM, the TGI (SF-268 CNS) was 10.6 µM and the GI50 (IGROV1 ovarian) was 2.58 µM. The TGI (IGROV1 ovarian) was 7.42 µM, the GI50 (T-47D breast) was 3.84 µM and the TGI (T-47D breast) was 22.4 µM. It also gave a GI50 (TK-10 renal) of 3.04 µM, a TGI (TK-10 renal) of 9.97 µM and a GI50 (MDA-MB-435) of 1.86 µM. It also gave a TGI (MDA-MB-435) of 7.49 µM, a GI50 (DU-145 prostate) of 2.61 µM and a TGI (DU-145 prostate) of 8.76 µM. The GI50 (K-562 leukemia) was 1.27 µM, the TGI (K-562 leukemia) was greater than 100 µM and the GI50 (CCRF-CEM leukemia) was 1.74 µM. For the same molecule, the TGI (CCRF-CEM leukemia) was greater than 100 µM, the GI50 (SK-MEL-2 melanoma) was 2.63 µM and the TGI (SK-MEL-2 melanoma) was 7.41 µM. It also gave a GI50 (UACC-257 melanoma) of 3.04 µM, a TGI (UACC-257 melanoma) of 12.1 µM and a GI50 (SW-620 colon) of 0.452 µM. For the same molecule, the TGI (SW-620 colon) was 1.61 µM, the GI50 (SK-MEL-28 melanoma) was 2.03 µM and the TGI (SK-MEL-28 melanoma) was 4.04 µM. For the same molecule, the GI50 (SN12C renal) was 3.5 µM, the TGI (SN12C renal) was 18.5 µM and the GI50 (M14 melanoma) was 1.85 µM. It also gave a TGI (M14 melanoma) of 5.21 µM, a GI50 (SF-295 CNS) of 4.95 µM and a TGI (SF-295 CNS) of 22 µM.
